Active and inactive are the calls of the source. The calls are words filed in the database; no cut-off is given here.
Species: Danio rerio
Assay: Pro-angiogenesis activity against PTK787 induced vascular injury in Tg(vegfr2: EGFP) zebrafish at 20 uM measured after 24 hrs by fluorescence imaging analysis
Assay type: functional, organism-based

CC(=O)C1=CCC[C@]23O[C@H]2CC[C@](C)(O)[C@@]13C
Activity: Active

— ChEMBL document CHEMBL5385950, “Terpenoids from the Soft Coral Stereonephthya bellissima” (J Nat Prod, 2024)
